Data published in patent US9732046B2, “Substituted 1,2,4-triazines as tubulin inhibitors” (YM Biosciences Australia Pty Ltd., priority 2003, dated 2017).

Key:
[1] = system: Tubulin (microtubule protein); assay: Tubulin assay (turbidometric assay of microtubule assembly); assay type: biochemical; conditions: Table 1; 50 μM; absorbance at 340 nm, 37° C.
Procedure: Turbidometric assays of microtubule assembly were performed by incubating microtubule protein in cuvettes at 37° C. in a thermostatically controlled spectrophotometer measuring the change in absorbance at 340 nm over time. The microtubule protein was incubated with the each test compound at 0° C. and polymerisation was initiated by addition of 1 mM GTP, prior to heating to 37° C.

PC3 (Prostate Cancer) = assay: Cellular growth inhibition assay (MTT), PC3; assay type: cell-based; conditions: Table 1, 40 hr incubation
Outline: (§1)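 Late-log-phase cells (K562 in RPMI, DU145 in DMED, PC3 in F12K; all 10% FBS, Glutamx, plus MEM non-essential amino acids for DU145 and PC3) were plated at 50000–200,000 cell/mL (1.1× final) with compounds added at 10× final. After 40 hr at 37° C, 5% CO2, MTT was added for 6 hours, then SDS/HCl lysis overnight and absorbance read at 590 nm.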

DU145 (Prostate Cancer) = assay: Cellular growth inhibition assay (MTT), DU145; assay type: cell-based; conditions: Homo sapiens, DU-145, Table 1, 40 hr incubation
Outline: as §1

[2] = target: T1, TelJak2 (BaF3 TELJAK cells, TEL/Jak2 fusion) (Homo sapiens, UniProt O60674); assay: Cellular growth inhibition assay (MTT), BaF3 TEL:JAK2 cell line; assay type: cell-based; conditions: Table 1, 40 hr incubation
T1 construct: The regions encompassing the kinase domain of JAK2 (nucleotides 2994-3914); expressed in transfected cells; host or cells: BaF3 cells bearing the pTET-off plasmid, transfected with pTELJAK2 (pTRE2 vector); the other entry of the earlier key: ETV6 (P41212, Transcription factor ETV6)
T1 sequence (O60674 with tags, fused parts or gaps): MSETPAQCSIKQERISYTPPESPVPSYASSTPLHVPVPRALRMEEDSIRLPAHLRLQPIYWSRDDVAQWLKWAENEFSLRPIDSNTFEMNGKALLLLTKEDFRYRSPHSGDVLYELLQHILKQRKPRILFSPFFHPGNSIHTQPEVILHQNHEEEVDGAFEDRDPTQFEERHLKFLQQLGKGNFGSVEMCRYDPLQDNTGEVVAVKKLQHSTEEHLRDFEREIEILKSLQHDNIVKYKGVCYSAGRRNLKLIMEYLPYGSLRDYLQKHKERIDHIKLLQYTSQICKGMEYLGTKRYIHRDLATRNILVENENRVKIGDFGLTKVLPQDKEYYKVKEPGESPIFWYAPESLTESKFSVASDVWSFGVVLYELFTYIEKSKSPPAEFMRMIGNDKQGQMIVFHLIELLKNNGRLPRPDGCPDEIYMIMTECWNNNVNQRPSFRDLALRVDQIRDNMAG

[3] = target: T2, TelJak3 (BaF3 TELJAK cells, TEL/JAK3 fusion) (Homo sapiens, UniProt P52333); assay: Cellular growth inhibition assay (MTT), BaF3 TEL:JAK3 cell line; assay type: cell-based; conditions: Table 1, 40 hr incubation
T2 construct: For JAK3 Sa1 I/Not I cleaved kinase domain PCR product was ligated with BamH I/Sa1 I cleaved TELproduct; expressed in transfected cells; host or cells: BaF3 cells bearing the pTET-off plasmid, transfected with pTELJAK3 (pTRE2 vector); the other entry of the earlier key: ETV6 (P41212, Transcription factor ETV6)
T2 sequence (P52333 with tags, fused parts or gaps): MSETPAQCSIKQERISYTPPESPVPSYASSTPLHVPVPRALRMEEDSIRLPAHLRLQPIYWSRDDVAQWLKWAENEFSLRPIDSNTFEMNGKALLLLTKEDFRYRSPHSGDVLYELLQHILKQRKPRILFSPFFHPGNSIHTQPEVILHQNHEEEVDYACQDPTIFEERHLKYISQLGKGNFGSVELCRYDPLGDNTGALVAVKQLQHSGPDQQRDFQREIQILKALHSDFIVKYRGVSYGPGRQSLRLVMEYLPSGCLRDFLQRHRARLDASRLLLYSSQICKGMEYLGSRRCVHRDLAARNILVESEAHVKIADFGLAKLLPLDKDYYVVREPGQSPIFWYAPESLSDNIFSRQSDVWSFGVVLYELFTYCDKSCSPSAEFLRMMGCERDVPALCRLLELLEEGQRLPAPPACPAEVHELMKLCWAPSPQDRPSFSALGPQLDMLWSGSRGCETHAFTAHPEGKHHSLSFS

[4] = system: K562 (Chronic Myeloid Leukemia); assay: Cellular growth inhibition assay (MTT), K562; assay type: cell-based; conditions: Homo sapiens, Table 1, 40 hr incubation
Outline: as §1

Structure (SMILES) | Tubulin inhibition of tubulin polymerisation [1] | inhibition at 20 µM (PC3 (Prostate Cancer)) [%] | inhibition at 20 µM (DU145 (Prostate Cancer)) [%] | inhibition at 20 µM [2] [%] | inhibition at 20 µM [3] [%] | inhibition at 20 µM [4] [%]
CCCC(Nc1cncc(-c2cc(C)c(O)c(C)c2)c1)c1ccccc1 (stereo not drawn) | + (compounds which inhibited tubulin polymerisation by greater than 50% at 50 μM) | > 50 | > 50 | > 50 | > 50 | > 50
CCCC(Nc1cncc(-c2ccc(NC(=O)NCC)c(OC)c2)n1)c1cccnc1 (stereo not drawn) | + (compounds which inhibited tubulin polymerisation by greater than 50% at 50 μM) | > 50 | > 50 | > 50 | > 50 | > 50
CCCC(Nc1cncc(-c2ccc(CNC(=O)C3CCCNC3)cc2)n1)c1ccccc1 (stereo not drawn) | + (compounds which inhibited tubulin polymerisation by greater than 50% at 50 μM) | > 50 | > 50 | > 50 | > 50 | > 50
CCCC(Nc1cncc(-c2ccc(OCCCN(CC)CC)c(OC)c2)n1)c1ccccc1 (stereo not drawn) | + (compounds which inhibited tubulin polymerisation by greater than 50% at 50 μM) | > 50 | > 50 | > 50 | > 50 | > 50
CCC[C@H](Nc1cncc(-c2ccc(NC(=O)NCC)c(OC)c2)n1)c1cccnc1 | + (compounds which inhibited tubulin polymerisation by greater than 50% at 50 μM) | > 50 | > 50 | > 50 | > 50 | > 50
COc1cc(-c2cncc(N[C@@H](C)c3ccccc3)c2)ccc1O | + (compounds which inhibited tubulin polymerisation by greater than 50% at 50 μM) | > 50 | > 50 | > 50 | > 50 | > 50
CCC[C@H](Nc1cncc(-c2ccc(NC(=O)NCC)c(OC)c2)n1)c1ccccn1 | + (compounds which inhibited tubulin polymerisation by greater than 50% at 50 μM) | > 50 | > 50 | > 50 | > 50 | > 50
CCCC(Nc1cncc(-c2ccc(OCCCN3CCCC3)c(OC)c2)n1)c1ccccc1 (stereo not drawn) | + (compounds which inhibited tubulin polymerisation by greater than 50% at 50 μM) | > 50 | > 50 | > 50 | > 50 | > 50
CCCC(Nc1cncc(-c2ccc(NC(=O)NCC)c(OC)c2)n1)c1cccnc1C (stereo not drawn) | + (compounds which inhibited tubulin polymerisation by greater than 50% at 50 μM) | > 50 | > 50 | > 50 | > 50 | > 50
CCC[C@H](Nc1ccnc(-c2ccc(NC(=O)NCC)c(OC)c2)n1)c1cccnc1 | + (compounds which inhibited tubulin polymerisation by greater than 50% at 50 μM) | > 50 | > 50 | > 50 | > 50 | > 50
CCCC(Nc1cncc(-c2ccc(NC(=O)NCCN(C)C)c(OC)c2)n1)c1cccnc1 (stereo not drawn) | + (compounds which inhibited tubulin polymerisation by greater than 50% at 50 μM) | > 50 | > 50 | > 50 | > 50 | > 50
CCC[C@H](Nc1cncc(-c2ccc(NC(=O)NC)c(OC)c2)n1)c1cccnc1 | + (compounds which inhibited tubulin polymerisation by greater than 50% at 50 μM) | > 50 | > 50 | > 50 | > 50 | > 50
CCNC(=O)Nc1ccc(-c2cncc(N[C@@H](CC)c3cccnc3)n2)cc1OC | + (compounds which inhibited tubulin polymerisation by greater than 50% at 50 μM) | > 50 | > 50 | > 50 | > 50 | > 50
COc1cc(-c2nccc(N[C@@H](C)c3ccccc3)n2)ccc1O | + (compounds which inhibited tubulin polymerisation by greater than 50% at 50 μM) | > 50 | > 50 | > 50 | > 50 | > 50
CCCC(Nc1cncc(-c2ccc(NC(=O)NCC)c(C)c2)n1)c1ccccn1 (stereo not drawn) | + (compounds which inhibited tubulin polymerisation by greater than 50% at 50 μM) | > 50 | > 50 | > 50 | > 50 | > 50
CCCC(Nc1cncc(-c2ccc(NC(=O)NCC)c(OC)c2)n1)c1cccc(F)c1 (stereo not drawn) | + (compounds which inhibited tubulin polymerisation by greater than 50% at 50 μM) | > 50 | > 50 | > 50 | > 50 | > 50
CCC[C@H](Nc1nc(-c2ccc(NC(=O)NCC)c(OC)c2)ncc1C)c1cccnc1 | + (compounds which inhibited tubulin polymerisation by greater than 50% at 50 μM) | > 50 | > 50 | > 50 | > 50 | > 50
CCCC(Nc1cncc(-c2ccc(OCCCCO)c(OC)c2)n1)c1ccccc1 (stereo not drawn) | + (compounds which inhibited tubulin polymerisation by greater than 50% at 50 μM) | > 50 | > 50 | > 50 | > 50 | > 50
CCCC(Nc1cncc(-c2ccc(OCCCCN3CCCCC3)c(OC)c2)n1)c1ccccc1 (stereo not drawn) | + (compounds which inhibited tubulin polymerisation by greater than 50% at 50 μM) | > 50 | > 50 | > 50 | > 50 | > 50
COc1cc(-c2cc(N[C@@H](C)c3ccccc3)ncn2)ccc1O | + (compounds which inhibited tubulin polymerisation by greater than 50% at 50 μM) | > 50 | > 50 | > 50 | > 50 | > 50
CCCC(Nc1cncc(-c2ccc(NC(=O)NCCCN3CCOCC3)c(OC)c2)n1)c1cccnc1 (stereo not drawn) | + (compounds which inhibited tubulin polymerisation by greater than 50% at 50 μM) | > 50 | > 50 | > 50 | > 50 | > 50
CCCC(Nc1nnc(C)c(-c2ccc(O)c(OC)c2)n1)c1ccccc1 (stereo not drawn) | + (compounds which inhibited tubulin polymerisation by greater than 50% at 50 μM) | > 50 | > 50 | > 50 | > 50 | > 50
CCNC(=O)Nc1ccc(-c2cncc(N[C@@H](COCC)c3ccccc3)n2)cc1OC | + (compounds which inhibited tubulin polymerisation by greater than 50% at 50 μM) | > 50 | > 50 | > 50 | > 50 | > 50
CCCC(Nc1cncc(-c2ccc(NC(=O)NCC)c(C)c2)n1)c1cccnc1 (stereo not drawn) | + (compounds which inhibited tubulin polymerisation by greater than 50% at 50 μM) | > 50 | > 50 | > 50 | > 50 | > 50
